In PubChem BioAssay AID2060887 (Molecular Pharmacology Branch, DTP, NCI, 2025):

Tested on: 782815-120-R-J1-PDC complex spheroid viability
Assay: Anticancer human tumor 782815-120-R-J1-PDC patient-derived colon adenocarcinoma cell line growth inhibition [RAS]
Conditions: for IC50: curve of first compound; for viability, T/C: stronger effect = lower value
Method in brief: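 Multi-cell-type spheroids: tumor cells plus HUVEC endothelial cells and mesenchymal stem cells. RAS-pathway inhibitors were combined with targeted agents, each dosed in half-log steps down from clinical Cmax, or from 10 microM when Cmax was unknown.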

[1] = second compound 0.000949 µM, first compound 0.0316 µM
[2] = second compound 0.000949 µM, first compound 0.1 µM
[3] = second compound 0.000949 µM, first compound 0.316 µM
[4] = second compound 0.000949 µM, first compound 1 µM
[5] = second compound 0.000949 µM, first compound 3.16 µM
[6] = second compound 0.000949 µM, first compound 10 µM
[7] = second compound 0.003 µM, first compound 0.0316 µM
[8] = second compound 0.003 µM, first compound 0.1 µM
[9] = second compound 0.003 µM, first compound 0.316 µM
[10] = second compound 0.003 µM, first compound 1 µM
[11] = second compound 0.003 µM, first compound 3.16 µM
[12] = second compound 0.003 µM, first compound 10 µM
[13] = second compound 0.00949 µM, first compound 0.0316 µM
[14] = second compound 0.00949 µM, first compound 0.1 µM
[15] = second compound 0.00949 µM, first compound 0.316 µM
[16] = second compound 0.00949 µM, first compound 1 µM
[17] = second compound 0.00949 µM, first compound 3.16 µM
[18] = second compound 0.00949 µM, first compound 10 µM
[19] = second compound 0.03 µM, first compound 0.0316 µM
[20] = second compound 0.03 µM, first compound 0.1 µM
[21] = second compound 0.03 µM, first compound 0.316 µM
[22] = second compound 0.03 µM, first compound 1 µM
[23] = second compound 0.03 µM, first compound 3.16 µM
[24] = second compound 0.03 µM, first compound 10 µM
[25] = second compound 0.0949 µM, first compound 0.0316 µM
[26] = second compound 0.0949 µM, first compound 0.1 µM
[27] = second compound 0.0949 µM, first compound 0.316 µM
[28] = second compound 0.0949 µM, first compound 1 µM
[29] = second compound 0.0949 µM, first compound 3.16 µM
[30] = second compound 0.0949 µM, first compound 10 µM
[31] = second compound 0.3 µM, first compound 0.0316 µM
[32] = second compound 0.3 µM, first compound 0.1 µM
[33] = second compound 0.3 µM, first compound 0.316 µM
[34] = second compound 0.3 µM, first compound 1 µM
[35] = second compound 0.3 µM, first compound 3.16 µM
[36] = second compound 0.3 µM, first compound 10 µM
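Further: spheroids exposed to compounds for 7 days before reading.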
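Wherever viability, T/C is given: 100% = DMSO vehicle control viability.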

CC1(O)CCCC1n1c(=O)c(C(F)F)cc2cnc(NC3CCN(S(C)(=O)=O)CC3)nc21 (stereo not drawn) + CCn1c(-c2cc(N3CCN(C)CC3)cnc2C(C)OC)c2c3cc(ccc31)-c1csc(n1)CC(NC(=O)C1CC1C)C(=O)N1CCCC(N1)C(=O)OCC(C)(C)C2
IC50 (second compound 0.000949 µM): 3340 nM | IC50 (second compound 0.003 µM): < 31.6 nM | IC50 (second compound 0.00949 µM): < 31.6 nM | IC50 (second compound 0.03 µM): < 31.6 nM | IC50 (second compound 0.0949 µM): < 31.6 nM | IC50 (second compound 0.3 µM): < 31.6 nM | viability, T/C [1]: 58.6% | viability, T/C [2]: 48.5% | viability, T/C [3]: 45% | viability, T/C [4]: 53.4% | viability, T/C [5]: 52.9% | viability, T/C [6]: 17% | viability, T/C [7]: 40.2% | viability, T/C [8]: 45.4% | viability, T/C [9]: 41.3% | viability, T/C [10]: 41.8% | viability, T/C [11]: 39.1% | viability, T/C [12]: 15.1% | viability, T/C [13]: 26.1% | viability, T/C [14]: 28.3% | viability, T/C [15]: 22.4% | viability, T/C [16]: 26.3% | viability, T/C [17]: 30% | viability, T/C [18]: 8.61% | viability, T/C [19]: 16.6% | viability, T/C [20]: 17.6% | viability, T/C [21]: 17.4% | viability, T/C [22]: 15.8% | viability, T/C [23]: 22.4% | viability, T/C [24]: 4.67% | viability, T/C [25]: 12.4% | viability, T/C [26]: 13.8% | viability, T/C [27]: 13.6% | viability, T/C [28]: 13.5% | viability, T/C [29]: 18.5% | viability, T/C [30]: 5.05% | viability, T/C [31]: 14.8% | viability, T/C [32]: 12.7% | viability, T/C [33]: 13.9% | viability, T/C [34]: 15% | viability, T/C [35]: 18.2% | viability, T/C [36]: 4.68%

CCC(CC)c1cc(NC2CCC(N)C2)n2nccc2n1 (stereo not drawn) + CCn1c(-c2cc(N3CCN(C)CC3)cnc2C(C)OC)c2c3cc(ccc31)-c1csc(n1)CC(NC(=O)C1CC1C)C(=O)N1CCCC(N1)C(=O)OCC(C)(C)C2
IC50 (second compound 0.000949 µM): 2020 nM | IC50 (second compound 0.003 µM): 1060 nM | IC50 (second compound 0.00949 µM): < 31.6 nM | IC50 (second compound 0.03 µM): < 31.6 nM | IC50 (second compound 0.0949 µM): < 31.6 nM | IC50 (second compound 0.3 µM): < 31.6 nM | viability, T/C [1]: 69.7% | viability, T/C [2]: 75.9% | viability, T/C [3]: 74.2% | viability, T/C [4]: 84.7% | viability, T/C [5]: 33.4% | viability, T/C [6]: 1.4% | viability, T/C [7]: 56.2% | viability, T/C [8]: 53.3% | viability, T/C [9]: 57.4% | viability, T/C [10]: 52% | viability, T/C [11]: 12.1% | viability, T/C [12]: 1.08% | viability, T/C [13]: 32.4% | viability, T/C [14]: 37.1% | viability, T/C [15]: 33.6% | viability, T/C [16]: 33.7% | viability, T/C [17]: 6.65% | viability, T/C [18]: 1.2% | viability, T/C [19]: 21.2% | viability, T/C [20]: 20% | viability, T/C [21]: 19.9% | viability, T/C [22]: 20.9% | viability, T/C [23]: 3.02% | viability, T/C [24]: 1.53% | viability, T/C [25]: 18.6% | viability, T/C [26]: 19.7% | viability, T/C [27]: 16.1% | viability, T/C [28]: 16.4% | viability, T/C [29]: 2.74% | viability, T/C [30]: 1.31% | viability, T/C [31]: 16.6% | viability, T/C [32]: 15.1% | viability, T/C [33]: 16.5% | viability, T/C [34]: 15.2% | viability, T/C [35]: 1.69% | viability, T/C [36]: 1.33%

Cc1nc(N2CCC3(CC2)COC(C)C3N)c(CO)nc1Sc1ccnc(N)c1Cl (stereo not drawn) + CCn1c(-c2cc(N3CCN(C)CC3)cnc2C(C)OC)c2c3cc(ccc31)-c1csc(n1)CC(NC(=O)C1CC1C)C(=O)N1CCCC(N1)C(=O)OCC(C)(C)C2
IC50 (second compound 0.000949 µM): > 10000 nM | IC50 (second compound 0.003 µM): > 10000 nM | IC50 (second compound 0.00949 µM): < 31.6 nM | IC50 (second compound 0.03 µM): < 31.6 nM | IC50 (second compound 0.0949 µM): < 31.6 nM | IC50 (second compound 0.3 µM): < 31.6 nM | viability, T/C [1]: 73.5% | viability, T/C [2]: 79.3% | viability, T/C [3]: 74.7% | viability, T/C [4]: 73% | viability, T/C [5]: 69.4% | viability, T/C [6]: 69.9% | viability, T/C [7]: 58.5% | viability, T/C [8]: 54.6% | viability, T/C [9]: 56% | viability, T/C [10]: 49% | viability, T/C [11]: 58.4% | viability, T/C [12]: 49% | viability, T/C [13]: 29.1% | viability, T/C [14]: 28.2% | viability, T/C [15]: 24.1% | viability, T/C [16]: 32.1% | viability, T/C [17]: 30.3% | viability, T/C [18]: 28.3% | viability, T/C [19]: 17.8% | viability, T/C [20]: 19% | viability, T/C [21]: 18.6% | viability, T/C [22]: 18.5% | viability, T/C [23]: 22.9% | viability, T/C [24]: 19.3% | viability, T/C [25]: 15.9% | viability, T/C [26]: 17% | viability, T/C [27]: 14.5% | viability, T/C [28]: 15.5% | viability, T/C [29]: 17.3% | viability, T/C [30]: 15.4% | viability, T/C [31]: 14.3% | viability, T/C [32]: 13.8% | viability, T/C [33]: 15.9% | viability, T/C [34]: 16.4% | viability, T/C [35]: 21.3% | viability, T/C [36]: 18.6%

NC1c2ccccc2OC12CCN(c1cnc3c(N4CCCc5ncccc54)n[nH]c3n1)CC2 (stereo not drawn) + CCn1c(-c2cc(N3CCN(C)CC3)cnc2C(C)OC)c2c3cc(ccc31)-c1csc(n1)CC(NC(=O)C1CC1C)C(=O)N1CCCC(N1)C(=O)OCC(C)(C)C2
IC50 (second compound 0.000949 µM): > 10000 nM | IC50 (second compound 0.003 µM): 1660 nM | IC50 (second compound 0.00949 µM): < 31.6 nM | IC50 (second compound 0.03 µM): < 31.6 nM | IC50 (second compound 0.0949 µM): < 31.6 nM | IC50 (second compound 0.3 µM): < 31.6 nM | viability, T/C [1]: 74.5% | viability, T/C [2]: 74.1% | viability, T/C [3]: 73.3% | viability, T/C [4]: 67.9% | viability, T/C [5]: 78.7% | viability, T/C [6]: 67.8% | viability, T/C [7]: 50.3% | viability, T/C [8]: 53.9% | viability, T/C [9]: 56.5% | viability, T/C [10]: 47.6% | viability, T/C [11]: 49.1% | viability, T/C [12]: 44% | viability, T/C [13]: 26.1% | viability, T/C [14]: 33.1% | viability, T/C [15]: 23.6% | viability, T/C [16]: 23.7% | viability, T/C [17]: 24.4% | viability, T/C [18]: 21.2% | viability, T/C [19]: 15.9% | viability, T/C [20]: 17.1% | viability, T/C [21]: 18.2% | viability, T/C [22]: 16.2% | viability, T/C [23]: 18.7% | viability, T/C [24]: 14.6% | viability, T/C [25]: 16.4% | viability, T/C [26]: 17.4% | viability, T/C [27]: 18.8% | viability, T/C [28]: 20.6% | viability, T/C [29]: 18.8% | viability, T/C [30]: 13.6% | viability, T/C [31]: 16.4% | viability, T/C [32]: 15.7% | viability, T/C [33]: 17.6% | viability, T/C [34]: 16.4% | viability, T/C [35]: 19.1% | viability, T/C [36]: 11.8%
